The record followed here is patent US8097650B2, “Method of treating a condition associated with phosphorylation of TASK-1” (The Trustees of Columbia University In The City of New York, priority 2005, dated 2012).

One test has as its target T1, hTASK-1 (Homo sapiens, UniProt O14649).
T1 construct: expressed in transfected cells; host or cells: CHO cells
As to the kind of experiment: hTASK-1 current in CHO cells (ramp clamp, pH 8). The format is cell-based. The conditions noted are these: Tyrode's pH 8; read-out: EC50 for activation of TASK-1 current. Here is the method: FIG. 21. CHO cells (hTREK-1, hTASK-1) or HEK cells (mTRAAK) were co-transfected with plasmids encoding one of the two pore domain channels and GFP using the GeneJammer reagent. After 48-60 h, the expressed current was measured using a ramp protocol while the cells were perfused with regular Tyrode's solution containing varying concentrations of ONO-RS-082 (range of concentration from 10 nM to 500 μM as noted in FIG. 21) until a steady state was reached. Each cell was exposed to only one concentration of drug. Panel A: TREK-1 current was determined using a ramp clamp, and the percent increase induced by ONO-RS-082 was measured at the most positive imposed voltage (n≧5). The EC50 for activation was around 3 μM and the basal and ONO-activated current densities are noted. Panel B: TASK-1 current was determined using a ramp clamp in Tyrode's solution at pH=8 and the percent increase induced by ONO-RS-082 was measured at the most positive imposed voltage (n≧4). The EC50 was around 8 μM and the basal and ONO-activated current densities are noted. Panel C: TRAAK current was determined using a ramp clamp, and the percent increase induced by ONO-RS-082 was measured at the most positive imposed voltage (n≧4). The EC50 was around 0.9 μM and the basal and ONO-activated current densities are noted.

The next test has as its system TASK-1. The experiment in a line: C-PAF-sensitive TASK-1 current in mouse ventricular myocytes dialyzed with PKCε peptides. The format is cell-based. The conditions noted are these: modified Tyrode's (high K+), scrambled peptide in pipette. On the procedure:
Mouse ventricular myocytes were isolated using a retrograde coronary perfusion method previously published (Kuznetsov V et al. (1995) Circ Res 76: 40-52). All the experiments were carried out according to the guidelines issued by the IACUC of Columbia University. Adult mice 2 or 3 months old, were anaesthetized with a xylazine and ketamine mix and heparinized, the heart was quickly removed and the ascending aorta was connected to the outlet of a Langendorff column and perfused with 20-25 ml of a buffer solution (37° C.) containing (mM):NaCl, 112; KCl, 5.4; NaHCO3, 4.2; MgCl2, 1.6; HEPES, 20; glucose, 5.4; NaH2PO4, 1.7; taurine, 10; L-glutamine, 4.1; MEM amino acids solution, 2%; MEM vitamin solution, 1%; adjusted to pH 7.4, and equilibrated with 100% O2. Next, the heart was perfused with an enzyme solution containing collagenase (0.2 mg/ml; Worthington Type II) and trypsin (0.04 mg/ml) at 35° C. for 10-12 min. After this perfusion, the atria were removed and the ventricles minced and transferred to a 50 ml flask with an enzyme solution containing collagenase (0.45 mg/ml), trypsin (0.08 mg/ml), Ca^2+ (0.75 mM) and bovine serum albumin (BSA; 4.8 mg/ml). The flask was shaken vigorously for 5-10 min at 32° C. before the supernatant was removed and the cells were collected by centrifugation, this operation was repeated two or three times and additional disaggregated cells were collected. After centrifugation, the myocytes were resuspended in the buffer solution containing Ca^2+ (0.75 mM) and BSA and stored at room temperature until use. Rod-shaped, Ca^2+-tolerant myocytes, obtained with this procedure, were used within 6 h of dissociation. Measurements were performed only on quiescent myocytes with clear striations
The myocyte suspension or the coverslip with CHO cells was placed into a perfusion chamber, mounted on the stage of an inverted microscope. Unless otherwise indicated, CHO cells were superfused at room temperature with standard external Tyrode's buffer, containing (mM): NaCl, 140; KCl, 5.4; CaCl2, 1; MgCl2, 1; HEPES, 5; glucose, 10; adjusted to pH 7.4. Recordings were begun after the current reached a stable baseline (usually 3 to 4 min after initial cell rupture). In myocytes, TASK-1 current is small and exists in the presence of numerous larger K^+ currents. […] Membrane potential and current were measured in the whole cell configuration using borosilicate glass pipettes with a tip resistance between […] and filled with a pipette solution containing (mM): aspartic acid, 130; KOH, 146; NaCl, 10; CaCl2, 2; EGTA, 5; HEPES, 10; MGATP, 2; pH 7.2. […] Myocytes treated with the peptides were monitored continuously beginning immediately after rupture to detect the occurrence of any arrhythmias during dialysis of the peptide. […]

T1 sequence (O14649 whole entry): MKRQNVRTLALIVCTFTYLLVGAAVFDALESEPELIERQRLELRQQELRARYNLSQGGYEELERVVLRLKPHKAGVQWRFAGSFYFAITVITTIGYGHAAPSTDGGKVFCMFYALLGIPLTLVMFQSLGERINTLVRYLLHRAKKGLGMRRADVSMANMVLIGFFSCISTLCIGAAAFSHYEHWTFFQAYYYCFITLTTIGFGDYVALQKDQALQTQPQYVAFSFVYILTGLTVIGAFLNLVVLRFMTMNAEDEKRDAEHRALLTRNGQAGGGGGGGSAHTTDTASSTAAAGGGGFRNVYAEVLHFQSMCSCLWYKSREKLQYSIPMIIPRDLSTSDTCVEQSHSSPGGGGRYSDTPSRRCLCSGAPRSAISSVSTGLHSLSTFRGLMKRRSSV

As to `CCCCCc1ccc(C=CC(=O)Nc2cc(Cl)ccc2C(=O)O)cc1` [ONO-RS-082], the EC50 (in general, the concentration giving half of the maximal effect) on hTASK-1 was about 8 µM. As to `CCCCCCCCCCCCCCCCOC[C@H](COP(=O)([O-])OCC[N+](C)(C)C)OC(=O)NC` [C-PAF, carbamyl-platelet-activating factor], in the test with TASK-1, the “reversal potential of C-PAF-sensitive current” value is −26.1±1.9 mV.
